Source: patent US10954255B2, “Phospholipid analogues” (Karl-Franzens-Universitaet Graz, priority 2018, dated 2021)
“Also recorded” adds a separate entry of the source.

How the values were obtained:
LPS-induced chemokine KC = assay: Induction of chemokine KC in plasma of mice injected with LPS; format: in vivo; details: phospholipid 200 μg/mouse i.p. with LPS 20 μg/mouse, blood after 2 and 4 hrs, FIG. 2
Procedure: Experiments were performed according to Austrian animal rights law using female C57BL/6J mice (Jackson Laboratories, Germany) of 20 g body weight. Mice were injected i.p. with 200 μl of either with saline, phospholipid (200 μg/mouse), LPS (Escherichia coli O55:B5, 20 μg/mouse) or a combination of LPS and the phospholipid. After 2 and 4 hrs blood was taken retroorbitaly and placed into Eppendorf tubes containing EDTA. After centrifugation of cells, plasma was collected and analyzed by ELISA for murine KC.

[1] = test system: Human ECs (HUVECs and HUVECtert); assay: Cell survival test, serum deprivation; format: cell-based; details: M199 without serum, 24 to 49 hrs, FIG. 6-8
Procedure: Human ECs (HUVECs and HUVECtert) were cultured Nunclon™ Delta surface flasks (Bartelt; Graz, Austria) in the medium M199 (Gibco) supplemented with 20% fetal calf serum (FCS, Gibco; Carlsbad, Calif., USA), penicillin-streptomycin-amphotericin B (PSF, Lonza; Basel, Switzerland), glutamine (Lonza) and ECGS-heparin (PromoCell; Heidelberg, Germany) in the 95% humidified atmosphere with 5% CO2 at 37° C. For stimulation of cells, they were seeded in the same medium in 96-well Nunclon™ Delta plates (Bartelt). On the day 2, the full medium was exchanged to M199 medium without serum but containing lipids (100 μl per well). In experiments on cell survival against hydrogen peroxide, camptothecin or doxorubicin, the full medium was exchanged to M199 containing 7% FCS and OxPAPC at 40 μg/ml or 50 μg/ml added as a two-fold concentrated solution (50 μl per well). After 20 to 30 min preincubation, toxic agents were added also as two-fold concentrated solutions in M199/7% FCS (50 μl per well). After 16 to 72 hrs of cell incubation at 37° C. and 5% CO2 in 95% humidity, either a nuclei counting of the remained cells or an XTT assay were performed. For the nuclei counting, the medium containing dead cells was aspirated and a Hoechst 33342 solution at the concentration of 1 μg/ml in PBS containing Ca^2+ and Mg^2+ (50 μl per well) was added. After at least 20 min incubation of cells at 37° C. in the cell culture incubator, the stained nuclei were counted using the EnSight plate reader (Perkin-Elmer; Waltham, Mass., USA). An XTT assay with the incubation time of 2 hrs was performed as described (Oskolkova, Godschachner and Bochkov, Inflammation 2017; 40(2): 530-536).
OxPLs protect endothelial cells (ECs) against serum deprivation. ECs were seeded in full M199 medium containing 20% serum. On the day 2, the medium was exchanged to M199 without serum and containing phospholipids at increasing concentrations. After 48 hrs, nuclei of remaining cells were stained by Hoechst and counted. Cells treated with 20% FCS serve as positive and with PBS as negative controls, respectively.
ECs were treated as described in Example 13. After 24 hrs, nuclei of remaining cells were stained by Hoechst 33342 and counted. Cells treated with OxPAPC and 20% FCS serve as positive and with PBS as negative controls, respectively.
ECs were treated with increasing concentrations of OxAA as described in Example 13. After 49 hrs, nuclei of remaining cells were stained by Hoechst 33342 and counted. Cells treated with 20% FCS or with 20 μM OxPAPC serve as positive and with PBS as negative controls, respectively.

[2] = test system: human pulmonary artery endothelial monolayers; assay: Endothelial monolayer permeability, transendothelial electrical resistance (TER); format: cell-based; details: for endothelial barrier-protective effect compared with free iloprost (TER): 0.5 μM, post-treatment 15 min or 5 hrs after LPS 200 ng/ml, monitored over 20 hours, FIG. 4
Procedure: The cellular barrier properties were analyzed by measurements of transendothelial electrical resistance (TER) across confluent human pulmonary artery endothelial monolayers using an electrical cell-substrate impedance sensing system (Applied Biophysics, USA) as previously described (Birukova A A et al., Am. J. Physiol. Lung Cell. Mol. Physiol. 2006, 290(3):L540-548; Birukova A A et al. FASEB J. 2004, 18(15):1879-1890).

LPS-induced lung injury = LPS-induced lung injury and vascular barrier dysfunction in mice (BAL, TNFα, optical imaging); format: in vivo; details: 10 μg/kg i.v. concurrently and 5 hrs after LPS i.t., day 1 and day 3, FIG. 5
Procedure: Eight-week old C57B1 mice were purchased from Jackson Laboratories (Bar Harbor, USA). Animals were handled according to the National Institutes of Health Guide for the Care and Use of Laboratory Animals. Bacterial lipopolysaccharide (LPS, 0.63 mg/kg body wt; Escherichia coli O55:B5) or sterile water was injected intratracheally in a small volume (20-30 μl) using a 20-gauge catheter (Exelint International, USA). Iloprost (10 μg/kg), ILO-PC (10 μg/kg) or sterile saline solution was administrated concurrently and 5 hrs after LPS instillation by intravenous injection in the external jugular vein. Animals were sacrificed at day-1 or day-3 by exsanguination under anesthesia. BAL was performed using 1 ml of sterile Hanks balanced salt buffer and measurements of cell count and protein concentration were conducted as previously described (Fu P et al., Eur. Respir. J. 2009, 33:612-624). […]
In vivo optical imaging: Mice were injected with 100 μl of 2 nmol Angiosense 680 EX (a vascular fluorescent blood pool imaging agent purchased from PerkinElmer, USA), intravenously via tail vein. Fluorescence optical imaging was performed in the Integrated Small Animal Imaging Research Resource (iSAIRR) at the University of Chicago using Xenogen IVIS 200 Spectrum (Caliper Life Sciences, USA). […]

CCCCCCCCCCCCCCCCOCC(COP(=O)(O)OCC[N+](C)(C)C)NC(=O)CCC/C=C\C[C@H]1C(=O)C[C@@H](O)[C@@H]1/C=C/[C@@H](O)CCCCC (stereo partly shown) [KFU-PGE2, 1-O-Hexadecyl-2-deoxy-2-(prostaglandin E2)amino-sn-glycero-3-phosphocholine]
induction of inflammatory chemokine KC in plasma (LPS-induced inflammation in vivo) (LPS-induced chemokine KC): inhibits induction of inflammatory chemokine KC | protection of ECs against serum deprivation (nuclei counting, Hoechst 33342) [1]: protective effects | endothelial barrier protection/enhancement (TER) ([2]; cultured endothelial cells, two concentrations, FIG. 3): protects endothelial cell barrier

CCCCCCCCCCCCCCCCOCC(COP(=O)(O)OCC[N+](C)(C)C)NC(=O)CCC/C=C\C[C@@H]1[C@@H](/C=C/[C@@H](O)CCCCC)[C@H](O)C[C@@H]1O (stereo partly drawn) [KFU-PGF2α, 1-O-Hexadecyl-2-deoxy-2-(prostaglandin F2α)amino-sn-glycero-3-phosphocholine]
protection of ECs against serum deprivation (nuclei counting, Hoechst 33342) [1]: protective effects

CCCCCCCCCCCCCCCCOCC(COP(=O)(O)OCC[N+](C)(C)C)NC(=O)CCC/C=C\C[C@@H]1C(=O)C=C[C@@H]1/C=C/[C@@H](O)CCCCC (stereo partly shown) [KFU-iPGA2, 1-O-Hexadecyl-2-deoxy-2-(8-iso-prostaglandin A2)amino-sn-glycero-3-phosphocholine]
protection of ECs against serum deprivation (nuclei counting, Hoechst 33342) ([1]; listed as iPGA2-NH-PC): protective effects; also recorded: protect ECs against serum deprivation

CC#CCC(C)[C@H](O)/C=C/[C@@H]1C2C/C(=C/CCCC(=O)NC(COCCCCCCCCCCCCCCCC)COP(=O)(O)OCC[N+](C)(C)C)CC2C[C@H]1O (stereo partly shown) [KFU-iloprost, 1-O-Hexadecyl-2-deoxy-2-(iloprost)amino-sn-glycero-3-phosphocholine]
protection from LPS-induced lung injury, barrier dysfunction and edema compared with free iloprost (LPS-induced lung injury): better protection from edema in vivo as compared to free molecule | protection from LPS-induced lung injury, barrier dysfunction and edema compared with free iloprost (LPS-induced lung injury; listed as KFU-ILO): better protective response on LPS-induced lung injury and barrier dysfunction compared to a free molecule | endothelial barrier-protective effect compared with free iloprost (TER) [2]: stronger endothelial barrier-protective effect than free Iloprost | endothelial barrier-protective effect compared with free iloprost (TER) ([2]; listed as KFU-conjugated iloprost): stronger and more prolonged barrier-protective activity as compared to free iloprost

CCCCC[C@H](O)/C=C/[C@H]1C=CC(=O)[C@H]1C/C=C\CCCC(=O)O [iPGA2, 8-iso-prostaglandin A2, reference compound]
protection of ECs against serum deprivation (nuclei counting, Hoechst 33342) [1]: not active; also recorded: not protective
